Experimental data published in patent US20230210831A1, “CHRONIC KIDNEY DISEASE TREATMENT OR PREVENTION METHOD” (Japan Tobacco Inc., priority 2019, published 2023).

Experiments:
Type in all cases: cell-based
[1] = system: Salmonella typhimurium TA98; test: Ames test (reverse mutation test), TA98
Procedure: (§1) The solvent used herein was dimethyl sulfoxide (DMSO, 100 µL/plate).
(§2) The mixtures were preincubated at 37° C. for 20 minutes while shaking. […] Two plates per treatment were used.

[2] = system: Salmonella typhimurium TA1537; test: Ames test (reverse mutation test), TA1537
Procedure: as §1, §2

[3] = system: Salmonella typhimurium TA100; test: Ames test (reverse mutation test), TA100
Procedure: as §1, §2

[4] = system: Salmonella typhimurium TA1535; test: Ames test (reverse mutation test), TA1535
Procedure: as §1, §2

Escherichia coli WP2uvrA = test: Ames test (reverse mutation test), WP2uvrA
Procedure: as §1, §2

Nc1cc(-c2cccc(OCC(F)(F)F)c2)n(-c2ccc(F)cc2)n1 [Metabolite E]
Number of revertant colonies TA98 ([1]; S9 Mix +, dose 2.3 µg/plate): 589
Number of revertant colonies TA98 ([1]; S9 Mix +, dose 6.9 µg/plate): 1310
Number of revertant colonies TA98 ([1]; S9 Mix +, dose 21 µg/plate): 1001
Number of revertant colonies TA98 ([1]; S9 Mix +, dose 62 µg/plate): 490
Number of revertant colonies TA98 ([1]; S9 Mix +, dose 185 µg/plate): 268
Number of revertant colonies TA98 ([1]; S9 Mix +, dose 556 µg/plate): 77
Number of revertant colonies TA98 ([1]; S9 Mix +, dose 1667 µg/plate): 15
Number of revertant colonies TA98 ([1]; S9 Mix +, dose 5000 µg/plate): 12
Number of revertant colonies TA98 ([1]; S9 Mix -, dose 2.3 µg/plate): 26
Number of revertant colonies TA98 ([1]; S9 Mix -, dose 6.9 µg/plate): 27
Number of revertant colonies TA98 ([1]; S9 Mix -, dose 21 µg/plate): 28
Number of revertant colonies TA98 ([1]; S9 Mix -, dose 62 µg/plate): 32
Number of revertant colonies TA98 ([1]; S9 Mix -, dose 185 µg/plate): 17
Number of revertant colonies TA98 ([1]; S9 Mix -, dose 556 µg/plate): 12
Number of revertant colonies TA98 ([1]; S9 Mix -, dose 1667 µg/plate): 6
Number of revertant colonies TA98 ([1]; S9 Mix -, dose 5000 µg/plate): 2
potential to induce reverse mutations ([1]; TA98 with S9 mix): showed potential to induce reverse mutations
Number of revertant colonies TA1537 ([2]; S9 Mix +, dose 2.3 µg/plate): 65
Number of revertant colonies TA1537 ([2]; S9 Mix +, dose 6.9 µg/plate): 227
Number of revertant colonies TA1537 ([2]; S9 Mix +, dose 21 µg/plate): 180
Number of revertant colonies TA1537 ([2]; S9 Mix +, dose 62 µg/plate): 102
Number of revertant colonies TA1537 ([2]; S9 Mix +, dose 185 µg/plate): 85
Number of revertant colonies TA1537 ([2]; S9 Mix +, dose 556 µg/plate): 0
Number of revertant colonies TA1537 ([2]; S9 Mix +, dose 1667 µg/plate): 0
Number of revertant colonies TA1537 ([2]; S9 Mix +, dose 5000 µg/plate): 0
Number of revertant colonies TA1537 ([2]; S9 Mix -, dose 2.3 µg/plate): 17
Number of revertant colonies TA1537 ([2]; S9 Mix -, dose 6.9 µg/plate): 20
Number of revertant colonies TA1537 ([2]; S9 Mix -, dose 21 µg/plate): 16
Number of revertant colonies TA1537 ([2]; S9 Mix -, dose 62 µg/plate): 11
Number of revertant colonies TA1537 ([2]; S9 Mix -, dose 185 µg/plate): 3
Number of revertant colonies TA1537 ([2]; S9 Mix -, dose 556 µg/plate): 0
Number of revertant colonies TA1537 ([2]; S9 Mix -, dose 1667 µg/plate): 0
Number of revertant colonies TA1537 ([2]; S9 Mix -, dose 5000 µg/plate): 0
potential to induce reverse mutations ([2]; TA1537 with S9 mix): showed potential to induce reverse mutations
potential to induce reverse mutations ([2]; TA1537 without S9 mix): showed potential to induce reverse mutations
Number of revertant colonies TA100 ([3]; S9 Mix +, dose 2.3 µg/plate): 1338
Number of revertant colonies TA100 ([3]; S9 Mix +, dose 6.9 µg/plate): 2032
Number of revertant colonies TA100 ([3]; S9 Mix +, dose 21 µg/plate): 2016
Number of revertant colonies TA100 ([3]; S9 Mix +, dose 62 µg/plate): 2320
Number of revertant colonies TA100 ([3]; S9 Mix +, dose 185 µg/plate): 1799
Number of revertant colonies TA100 ([3]; S9 Mix +, dose 556 µg/plate): 1082
Number of revertant colonies TA100 ([3]; S9 Mix +, dose 1667 µg/plate): 182
Number of revertant colonies TA100 ([3]; S9 Mix +, dose 5000 µg/plate): 157
Number of revertant colonies TA100 ([3]; S9 Mix -, dose 2.3 µg/plate): 110
Number of revertant colonies TA100 ([3]; S9 Mix -, dose 6.9 µg/plate): 96
Number of revertant colonies TA100 ([3]; S9 Mix -, dose 21 µg/plate): 96
Number of revertant colonies TA100 ([3]; S9 Mix -, dose 62 µg/plate): 101
Number of revertant colonies TA100 ([3]; S9 Mix -, dose 185 µg/plate): 75
Number of revertant colonies TA100 ([3]; S9 Mix -, dose 556 µg/plate): 38
Number of revertant colonies TA100 ([3]; S9 Mix -, dose 1667 µg/plate): 27
Number of revertant colonies TA100 ([3]; S9 Mix -, dose 5000 µg/plate): 0
potential to induce reverse mutations ([3]; TA100 with S9 mix): showed potential to induce reverse mutations
Number of revertant colonies TA1535 ([4]; S9 Mix +, dose 1667 µg/plate): 0
Number of revertant colonies TA1535 ([4]; S9 Mix -, dose 556 µg/plate): 0
Number of revertant colonies TA1535 ([4]; S9 Mix -, dose 1667 µg/plate): 0
potential to induce reverse mutations ([4]; TA1535 with S9 mix): showed potential to induce reverse mutations
Number of revertant colonies WP2uvrA (Escherichia coli WP2uvrA; S9 Mix +, dose 2.3 µg/plate): 26
Number of revertant colonies WP2uvrA (Escherichia coli WP2uvrA; S9 Mix +, dose 6.9 µg/plate): 32
Number of revertant colonies WP2uvrA (Escherichia coli WP2uvrA; S9 Mix +, dose 21 µg/plate): 24
Number of revertant colonies WP2uvrA (Escherichia coli WP2uvrA; S9 Mix +, dose 62 µg/plate): 30
Number of revertant colonies WP2uvrA (Escherichia coli WP2uvrA; S9 Mix +, dose 185 µg/plate): 18
Number of revertant colonies WP2uvrA (Escherichia coli WP2uvrA; S9 Mix +, dose 556 µg/plate): 19
Number of revertant colonies WP2uvrA (Escherichia coli WP2uvrA; S9 Mix +, dose 1667 µg/plate): 13
Number of revertant colonies WP2uvrA (Escherichia coli WP2uvrA; S9 Mix +, dose 5000 µg/plate): 12
Number of revertant colonies WP2uvrA (Escherichia coli WP2uvrA; S9 Mix -, dose 2.3 µg/plate): 20
Number of revertant colonies WP2uvrA (Escherichia coli WP2uvrA; S9 Mix -, dose 6.9 µg/plate): 26
Number of revertant colonies WP2uvrA (Escherichia coli WP2uvrA; S9 Mix -, dose 21 µg/plate): 24
Number of revertant colonies WP2uvrA (Escherichia coli WP2uvrA; S9 Mix -, dose 62 µg/plate): 27
Number of revertant colonies WP2uvrA (Escherichia coli WP2uvrA; S9 Mix -, dose 185 µg/plate): 22
Number of revertant colonies WP2uvrA (Escherichia coli WP2uvrA; S9 Mix -, dose 556 µg/plate): 10
Number of revertant colonies WP2uvrA (Escherichia coli WP2uvrA; S9 Mix -, dose 1667 µg/plate): 15
Number of revertant colonies WP2uvrA (Escherichia coli WP2uvrA; S9 Mix -, dose 5000 µg/plate): 7
